Data published in PMC4410016 (Cell reports, 2015).

How the values were obtained:
MtrF [1] = target: MtrF (Neisseria gonorrhoeae, UniProt Q9RNX2); assay: isothermal titration calorimetry; format: binding
MtrF [2] = target: MtrF (Neisseria gonorrhoeae, UniProt Q9RNX2, W420A); assay: biochemical
[3] = target: Neisseria gonorrhoeae MtrF transporter (Neisseria gonorrhoeae); assay: SEC

Row | Compound | Kd (MtrF [1]) [µM] | Kd (MtrF [2]) [µM] | stoichiometry N [3]
1 | Nc1ccc(C(=O)O)cc1 [p-aminobenzoic acid] | 0.54 ± 0.02 | 41.1 ± 11.5 | –
2 | Nc1ccc(S(=O)(=O)Nc2ncccn2)cc1 [sulfadiazine] | 12.7 ± 0.62 | 106 ± 25.6 | –
3 | Neisseria gonorrhoeae MtrF transporter (natural protein) | – | – | 2
4 | Nc1ccc(S(=O)(=O)Nc2nccs2)cc1 [sulfathiazole] | 1.52 ± 0.07 | 50.8 ± 8.9 | –
5 | Cc1cc(C)nc(NS(=O)(=O)c2ccc(N)cc2)n1 [sulfamethazine] | 0.33 ± 0.02 | 10.8 ± 1.17 | –
